Active and inactive are the calls of the source. The rule behind the calls is not given here.
Tests used:
A549 = assay: Cytotoxicity against human A549 cells assessed as growth inhibition after 48 hrs by MTT assay; assay type: functional, cell-based
MCF7 = assay: Cytotoxicity against human MCF7 cells assessed as growth inhibition after 48 hrs by MTT assay; assay type: functional, cell-based
HeLa [1] = assay: Cytotoxicity against human HeLa cells assessed as growth inhibition after 48 hrs by MTT assay; assay type: functional, cell-based; set-up: unit not given here
HeLa [2] = assay: Cell cycle arrest in human HeLa cells assessed as accumulation at sub-G1 phase at 0.1 umol after 24 hrs (reference value: 7.8%); assay type: functional
HeLa [3] = assay: Cytotoxicity against human HeLa cells assessed as inhibition of colony formation at 0.1 to 1 umol after 5 days by crystal violet staining assay; assay type: functional, cell-based
HeLa [4] = assay: Induction of apoptosis in human HeLa cells assessed as downregulation of GRP78 protein expression after 24 hrs by Western blot analysis; assay type: functional, cell-based
HeLa [5] = assay: Cell cycle arrest in human HeLa cells assessed as accumulation at sub-G1 phase at 0.3 umol after 24 hrs (reference value: 7.8%); assay type: functional
HeLa [6] = assay: Antimigratory activity against human HeLa cells in low serum containing medium at 0.3 to 1 umol after 24 hrs by wound healing assay; assay type: functional, cell-based
HeLa [7] = assay: Induction of apoptosis in human HeLa cells assessed as upregulation of par-4 protein expression after 24 hrs by Western blot analysis; assay type: functional, cell-based
HeLa [8] = assay: Induction of apoptosis in human HeLa cells assessed as downregulation of survivin protein expression after 24 hrs by Western blot analysis; assay type: functional, cell-based
HeLa [9] = assay: Cell cycle arrest in human HeLa cells assessed as accumulation at sub-G1 phase at 1 umol after 24 hrs (reference value: 7.8%); assay type: functional
HeLa [10] = assay: Induction of apoptosis in human HeLa cells assessed as downregulation of Bcl-2 protein expression after 24 hrs by Western blot analysis; assay type: functional, cell-based
HeLa [11] = assay: Antimigratory activity against human HeLa cells in low serum containing medium at 25 nmol after 24 hrs by wound healing assay; assay type: functional, cell-based

SMILES	IC50 (A549) [µM]	IC50 (MCF7) [µM]	IC50 (HeLa [1])	also measured
COc1cccc(C(c2c[nH]c3ccc(Br)cc23)c2c[nH]c3ccc(Br)cc23)c1OC	100	89	64.5	–
CC[C@@]1(O)C(=O)OCc2c1cc1n(c2=O)Cc2cc3ccccc3nc2-1 [CAMPTOTHECIN]	–	–	–	Activity (HeLa [2]): 33.1%
OC[C@H]1O[C@@H](n2cc(C(c3ccc(Cl)cc3)c3cn([C@@H]4O[C@H](CO)[C@@H](O)[C@H](O)[C@H]4O)c4ccc(Br)cc34)c3cc(Br)ccc32)[C@H](O)[C@@H](O)[C@@H]1O	2.7	53.2	32	–
O=[N+]([O-])c1ccc(C(c2c[nH]c3ccc(Br)cc23)c2c[nH]c3ccc(Br)cc23)cc1	5.5	3.1	1.5	inhibition (HeLa [3]): Active
N#Cc1ccc2[nH]cc(C(c3ccc(Br)cc3)c3c[nH]c4ccc(C#N)cc34)c2c1	> 100	27.1	> 100	–
O=[N+]([O-])c1ccc2[nH]cc(C(c3ccc(Cl)cc3)c3c[nH]c4ccc([N+](=O)[O-])cc34)c2c1	> 100	> 100	> 100	–
CCCCCCCC(c1c[nH]c2ccc(C#N)cc12)c1c[nH]c2ccc(C#N)cc12	26	2.5	7	–
Oc1ccc(C(c2c[nH]c3ccc(Br)cc23)c2c[nH]c3ccc(Br)cc23)cc1	–	3.5	–	–
CCCCCCCC(c1cn([C@@H]2O[C@H](CO)[C@@H](O)[C@H](O)[C@H]2O)c2ccc(Br)cc12)c1cn([C@@H]2O[C@H](CO)[C@@H](O)[C@H](O)[C@H]2O)c2ccc(Br)cc12	1.3	0.9	0.3	Activity (HeLa [4]): Dose-dependent effect; Activity (HeLa [5]): 19.3%; Activity (HeLa [6]): Active; Activity (HeLa [7]): Dose-dependent effect; inhibition (HeLa [3]): Active; Activity (HeLa [2]): 27.8%; Activity (HeLa [8]): Dose-dependent effect; Activity (HeLa [9]): 22.4%; Activity (HeLa [10]): Dose-dependent effect
CN(C)c1ccc(C(c2c[nH]c3ccc(Br)cc23)c2c[nH]c3ccc(Br)cc23)cc1	25	24.9	12.8	–
Brc1ccc(C(c2c[nH]c3ccc(Br)cc23)c2c[nH]c3ccc(Br)cc23)cc1	5.6	3.2	1.5	inhibition (HeLa [3]): Active
N#Cc1ccc2[nH]cc(C(c3ccc(Cl)cc3)c3c[nH]c4ccc(C#N)cc34)c2c1	> 100	23.6	> 100	–
COc1ccc(C(c2c[nH]c3ccc(Br)cc23)c2c[nH]c3ccc(Br)cc23)cc1	10	2.3	5.5	–
Brc1ccc2[nH]cc(C(c3ccc4ccccc4c3)c3c[nH]c4ccc(Br)cc34)c2c1	8.5	7.1	4.3	–
CCCCCCCC(c1cn([C@@H]2O[C@H](COC(C)=O)[C@@H](OC(C)=O)[C@H](OC(C)=O)[C@H]2OC(C)=O)c2ccc(Br)cc12)c1cn([C@@H]2O[C@H](COC(C)=O)[C@@H](OC(C)=O)[C@H](OC(C)=O)[C@H]2OC(C)=O)c2ccc(Br)cc12	17	> 100	10	–
O=[N+]([O-])c1ccc(C(c2c[nH]c3ccc([N+](=O)[O-])cc23)c2c[nH]c3ccc([N+](=O)[O-])cc23)cc1	> 100	22.5	> 100	–
OC[C@H]1O[C@@H](n2cc(C(c3ccc(Br)cc3)c3cn([C@@H]4O[C@H](CO)[C@@H](O)[C@H](O)[C@H]4O)c4ccc(Br)cc34)c3cc(Br)ccc32)[C@H](O)[C@@H](O)[C@@H]1O	2.5	51.1	27	–
CC(=O)OC[C@H]1O[C@@H](n2cc(C(c3ccc(Cl)cc3)c3cn([C@@H]4O[C@H](COC(C)=O)[C@@H](OC(C)=O)[C@H](OC(C)=O)[C@H]4OC(C)=O)c4ccc(Br)cc34)c3cc(Br)ccc32)[C@H](OC(C)=O)[C@@H](OC(C)=O)[C@@H]1OC(C)=O	24	> 100	70	–

SMILES	IC50 (A549) [µM]	IC50 (MCF7) [µM]	IC50 (HeLa [1])	also measured
CCCC(c1c[nH]c2ccc(Br)cc12)c1c[nH]c2ccc(Br)cc12	6.5	3.6	3.9	–
CC(=O)OC[C@H]1O[C@@H](n2cc(C(c3ccc([N+](=O)[O-])cc3)c3cn([C@@H]4O[C@H](COC(C)=O)[C@@H](OC(C)=O)[C@H](OC(C)=O)[C@H]4OC(C)=O)c4ccc(Br)cc34)c3cc(Br)ccc32)[C@H](OC(C)=O)[C@@H](OC(C)=O)[C@@H]1OC(C)=O	8	> 100	3.5	–
CC(=O)OC[C@H]1O[C@@H](n2cc(C(c3ccc(Br)cc3)c3cn([C@@H]4O[C@H](COC(C)=O)[C@@H](OC(C)=O)[C@H](OC(C)=O)[C@H]4OC(C)=O)c4ccc(Br)cc34)c3cc(Br)ccc32)[C@H](OC(C)=O)[C@@H](OC(C)=O)[C@@H]1OC(C)=O	24	> 100	70	–
COc1ccc(C(c2c[nH]c3ccc(Br)cc23)c2c[nH]c3ccc(Br)cc23)c(OC)c1	100	77.5	63.2	–
O=[N+]([O-])c1ccc(C(c2cn([C@@H]3O[C@H](CO)[C@@H](O)[C@H](O)[C@H]3O)c3ccc(Br)cc23)c2cn([C@@H]3O[C@H](CO)[C@@H](O)[C@H](O)[C@H]3O)c3ccc(Br)cc23)cc1	2.4	66.7	30	–
N#Cc1ccc2[nH]cc(C(c3ccc([N+](=O)[O-])cc3)c3c[nH]c4ccc(C#N)cc34)c2c1	> 100	23.6	> 100	–
Brc1ccc2[nH]cc(C(c3c[nH]c4ccc(Br)cc34)C3CCCCC3)c2c1	5.5	4.1	3.2	–
CCCCCCCC(c1c[nH]c2ccc([N+](=O)[O-])cc12)c1c[nH]c2ccc([N+](=O)[O-])cc12	12.5	5.8	35	–
c1ccc(C(c2c[nH]c3ccccc23)c2c[nH]c3ccccc23)cc1	40	22.2	21.8	–
COc1ccc(C(c2c[nH]c3ccc(Br)cc23)c2c[nH]c3ccc(Br)cc23)cc1OC	12	7.8	6.1	–
Oc1cccc(C(c2c[nH]c3ccc(Br)cc23)c2c[nH]c3ccc(Br)cc23)c1	8	2.8	3.9	–
Clc1ccc(C(c2c[nH]c3ccc(Br)cc23)c2c[nH]c3ccc(Br)cc23)cc1	8.5	3.5	4.8	inhibition (HeLa [3]): Active
CN[C@@H]1C[C@H]2O[C@@](C)([C@@H]1OC)n1c3ccccc3c3c4c(c5c6ccccc6n2c5c31)C(=O)NC4 [STAUROSPORINE]	–	0.013	–	Activity (HeLa [11]): Active
CCCCCCCC(c1c[nH]c2ccc(Br)cc12)c1c[nH]c2ccc(Br)cc12	3.5	5.5	1.3	inhibition (HeLa [3]): Active
COc1ccc(OC)c(C(c2c[nH]c3ccc(Br)cc23)c2c[nH]c3ccc(Br)cc23)c1	10	2.8	5.1	–
O=[N+]([O-])c1ccc2[nH]cc(C(c3ccc(Br)cc3)c3c[nH]c4ccc([N+](=O)[O-])cc34)c2c1	> 100	> 100	> 100	–
CC(c1ccccc1)(c1c[nH]c2ccccc12)c1c[nH]c2ccccc12	8.5	4	4.2	–
Brc1ccc2[nH]cc(C(c3ccccc3)c3c[nH]c4ccc(Br)cc34)c2c1	7.5	5.5	0.9	–

— ChEMBL document CHEMBL3390841, “Design and synthesis of novel N,N-glycoside derivatives of 3,3-diindolylmethanes as potential antiproliferative agents” (Medchemcomm, 2012)
